# Laboratory results taken from patent publication US9624229B2, “Pyrimidine-2-amine compounds and their use as inhibitors of JAK kinases” (Rigel Pharmaceuticals, Inc., priority 2008, dated 2017).
# Target: Ba/F3 V617F cells (Homo sapiens, UniProt O60674, V617F, cells depend on it)
# Assay: Proliferation assay (Cell Titer-Glo, 72 h) utilizing Ba/F3 V617F cells
# Type: cell-based, mouse
# Settings: Ba/F3 V617F cells, proliferation, level of activity given as class symbol, read-out: IC50 (the source's name)
# Method: Ba/F3 V617F cells are maintained and plated in RPMI with 10% FBS. Plating density for these cells is 1×10^5 cells/mL.
# The cells were resuspended in a corresponding medium at a required cell density (see above). 100μ of cell suspension was added to each well of a flat bottom 96 well white plate. The compound was serially diluted in DMSO from 5 mM in 3-fold dilutions, and then diluted 1:250 in the RPMI 1640 medium containing 5% FBS and pen/strep. 100 μL of resulting 2× compound solution was added per well in duplicate and the cells were allowed to proliferate for 72 hours at 37° C.
# Proliferation was measured using Cell Titer-Glo. The substrate was thawed and allowed to come to ambient temperature. After removal of top 100 μL of medium from each well, 100 μL of the premixed Cell Titer-Glo reagent was added to each well. The plates were mixed on an orbital shaker for three minutes to induce lysis and incubated at ambient temperature for an additional five minutes to allow the signal to equilibrate. The Luminescence was read on the Wallac Plate Reader.
# The results of the ability of the compounds of the invention to inhibit JAK2 activity, when tested in the above assay utilizing Ba/F3 V617F cells, are shown in the following Tables 2-3 wherein the level of activity (i.e., the IC50) for each compound is indicated in Tables 2-3. The compound numbers in Tables 2-3 refers to the compounds disclosed herein as being prepared by the methods disclosed herein: […]
# Chain of Ba/F3 V617F cells (O60674 whole entry V617F): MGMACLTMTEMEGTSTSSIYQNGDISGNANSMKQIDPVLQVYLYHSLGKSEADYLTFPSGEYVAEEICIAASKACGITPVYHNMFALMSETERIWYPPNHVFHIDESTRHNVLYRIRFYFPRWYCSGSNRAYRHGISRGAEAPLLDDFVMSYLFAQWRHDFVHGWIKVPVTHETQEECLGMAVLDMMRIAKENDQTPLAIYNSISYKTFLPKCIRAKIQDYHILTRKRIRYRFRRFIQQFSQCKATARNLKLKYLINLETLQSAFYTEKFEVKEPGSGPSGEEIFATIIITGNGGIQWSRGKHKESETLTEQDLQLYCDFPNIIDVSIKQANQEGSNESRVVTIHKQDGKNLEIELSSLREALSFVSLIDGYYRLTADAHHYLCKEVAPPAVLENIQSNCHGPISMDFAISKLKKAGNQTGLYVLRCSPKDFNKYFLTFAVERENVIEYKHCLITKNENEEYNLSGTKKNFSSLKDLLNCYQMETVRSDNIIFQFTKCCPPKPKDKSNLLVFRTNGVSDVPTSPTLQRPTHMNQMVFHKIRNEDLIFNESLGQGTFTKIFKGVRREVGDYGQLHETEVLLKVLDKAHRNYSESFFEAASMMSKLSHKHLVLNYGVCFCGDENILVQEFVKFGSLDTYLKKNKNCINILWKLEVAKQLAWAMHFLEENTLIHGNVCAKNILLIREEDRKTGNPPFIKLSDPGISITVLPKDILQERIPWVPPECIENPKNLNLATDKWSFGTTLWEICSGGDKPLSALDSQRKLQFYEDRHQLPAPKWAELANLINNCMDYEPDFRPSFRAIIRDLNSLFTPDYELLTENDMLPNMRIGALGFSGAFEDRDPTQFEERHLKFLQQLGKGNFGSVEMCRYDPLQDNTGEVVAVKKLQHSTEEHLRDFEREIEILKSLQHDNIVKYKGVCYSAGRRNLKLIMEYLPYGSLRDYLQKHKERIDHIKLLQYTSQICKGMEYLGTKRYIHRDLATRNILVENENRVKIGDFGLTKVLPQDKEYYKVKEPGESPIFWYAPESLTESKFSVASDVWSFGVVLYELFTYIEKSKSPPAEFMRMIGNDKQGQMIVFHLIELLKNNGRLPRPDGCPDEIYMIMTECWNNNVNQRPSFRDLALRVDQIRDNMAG
row,Structure (SMILES),GI50 [nM]
1,"CC1(C)Oc2cc(-c3ccnc(Nc4ccc(N5C[C@@H]6C[C@H]5CN6S(C)(=O)=O)c(Cl)c4)n3)cnc2NC1=O [compound 249, 4-(2,2-dimethyl-3-oxo-3,4-dihydro-2H-pyrido[3,2-b][1,4]oxazin-7-yl)-N-(3-chloro-4-((1S,4S)-5-(methylsulfonyl)-2,5-diazabicyclo[2.2.1]heptan-2-yl)phenyl)pyrimidin-2-amine]",< 1000
2,"Cc1cc(Nc2nccc(-c3ccc(OC4CCOCC4)nc3)n2)ccc1N1C2CCC1CC(N(C)C)C2 (centres unmarked) [compound 283, 4-(6-(tetrahydropyran-4-yloxy)pyridin-3-yl)-N-(3-methyl-4-(3-(dimethylamino)-8-azabicyclo[3.2.1]octan-8-yl)phenyl)pyrimidin-2-amine]",< 1000
3,"CC1(C)Oc2cc(-c3ccnc(Nc4ccc(C5CC6CC5N(S(C)(=O)=O)C6)cc4)n3)cnc2NC1=O (centres unmarked) [compound 228, 4-(2,2-dimethyl-3-oxo-3,4-dihydro-2H-pyrido[3,2-b][1,4]oxazin-7-yl)-N-(4-(2-methylsulfonyl-2-azabicyclo[2.2.1]heptan-6-yl)phenyl)pyrimidin-2-amine]",< 1000
4,"Cc1cc(Nc2nccc(-c3cnc4c(c3)OC(C)(C)C(=O)N4)n2)ccc1N1CCN2CCC1C2 (centres unmarked) [compound 252, 4-(2,2-dimethyl-3-oxo-3,4-dihydro-2H-pyrido[3,2-b][1,4]oxazin-7-yl)-N-(3-methyl-4-(1,4-diazabicyclo[3.2.1]octan-4-yl)phenyl)pyrimidin-2-amine]",< 1000
5,"Cc1cc(Nc2nccc(-c3ccc4c(c3)SCC(=O)N4)n2)ccc1N1CCN2C(C1)[C@H]1CC[C@@H]2C1 (stereo partly drawn) [compound 279, 4-(3-oxo-3,4-dihydro-2H-benzo[b][1,4]thiazin-7-yl)-N-(3-methyl-4-((6R,9S)-6,9-methanooctahydro-1H-pyrido[1,2-a]pyrazin-2-yl)phenyl)pyrimidin-2-amine]",< 1000
6,"CCOCCCNc1ccc(-c2ccnc(Nc3ccc(N4CC5(C)CN(C)CC(C)(C4)C5)c(C)c3)n2)cn1 [compound 211, 4-(6-(3-ethoxypropyl)aminopyridin-3-yl)-N-(3-methyl-4-(1,5,7-trimethyl-3,7-diazabicyclo[3.3.1]nonan-3-yl)phenyl)pyrimidin-2-amine]",< 1000
7,"CC(C)N1C[C@@H]2C[C@H]1CN2c1ccc(Nc2nccc(-c3ccc(N4CCOCC4)nc3)n2)cc1Cl [compound 263, 4-(6-(morpholin-4-yl)pyridin-3-yl)-N-(3-chloro-4-((1S,4S)-5-(1-methylethyl)-2,5-diazabicyclo[2.2.1]heptan-2-yl)phenyl)pyrimidin-2-amine]",< 1000

# The remaining lines, values ahead:
row,GI50 [nM],Structure (SMILES)
1,< 1000,"Cc1cc(Nc2nccc(-c3cnc4c(c3)OCC(=O)N4)n2)ccc1N1C[C@@H]2C[C@H]1CO2 [compound 210, 4-(3-oxo-3,4-dihydro-2H-pyrido[3,2-b][1,4]oxazin-7-yl)-N-(3-methyl-4-((1S,4S)-5-oxa-2-azabicyclo[2.2.1]heptan-2-yl)phenyl)pyrimidin-2-amine]"
2,< 1000,"Cc1cc(Nc2nccc(-c3cnc(N)c(CCCC(=O)OC(C)C)c3)n2)ccc1N1C[C@@H]2C[C@H]1CN2C [compound 253, 4-(5-(1-methylethoxy)carbonylpropyl-6-aminopyridin-3-yl)-N-(3-methyl-4-((1S,4S)-5-methyl-2,5-diazabicyclo[2.2.1]heptan-2-yl)phenyl)pyrimidin-2-amine]"
3,< 1000,"CCC(=O)N1C[C@@H]2C[C@H]1CN2c1ccc(Nc2nccc(-c3ccc(N4CCOCC4)nc3)n2)cc1C [compound 196, 4-(6-(morpholin-4-yl)pyridin-3-yl)-N-(3-methyl-4-((1S,4S)-5-ethylcarbonyl-2,5-diazabicyclo[2.2.1]heptan-2-yl)phenyl)pyrimidin-2-amine]"
4,< 1000,"Cc1cc(Nc2nccc(-c3cnc4c(c3)OC(C)(C)C(=O)N4)n2)ccc1N1C[C@@H]2C[C@H]1CN2C(C)C [compound 246, 4-(2,2-dimethyl-3-oxo-3,4-dihydro-2H-pyrido[3,2-b][1,4]oxazin-7-yl)-N-(3-methyl-4-((1S,4S)-5-(1-methylethyl)-2,5-diazabicyclo[2.2.1]heptan-2-yl)phenyl)pyrimidin-2-amine]"
5,< 1000,"Cc1cc(Nc2nccc(-c3cnc4c(c3)OCCN4C)n2)ccc1N1C[C@@H]2C[C@H]1CN2S(C)(=O)=O [compound 193, 4-(4-methyl-3,4-dihydro-2H-pyrido[3,2-b][1,4]oxazin-7-yl)-N-(3-methyl-4-((1S,4S)-5-methylsulfonyl-2,5-diazabicyclo[2.2.1]heptan-2-yl)phenyl)pyrimidin-2-amine]"
6,< 1000,"Cc1cc(Nc2nccc(-c3ccc(N4CCOCC4)nc3)n2)ccc1N1C[C@@H]2C[C@H]1CN2CC(C)C [compound 205, 4-(6-(morpholin-4-yl)pyridin-3-yl)-N-(3-methyl-4-((1S,4S)-5-isobutyl-2,5-diazabicyclo[2.2.1]heptan-2-yl)phenyl)pyrimidin-2-amine]"

# Same assay, conditions: Ba/F3 V617F cells, proliferation, level of activity to inhibit JAK2, read-out: IC50 (the source's name)
row,Structure (SMILES),GI50 [nM]
1,"Cc1cc(Nc2nccc(-c3ccc(C#N)nc3)n2)ccc1N1C2CCC1CC2 [compound 112, 4-(6-cyanopyridin-3-yl)-N-(3-methyl-4-(7-azabicyclo[2.2.1]heptan-7-yl)phenyl)pyrimidin-2-amine]",1000 to 10000
2,"CN(C)c1ccc(-c2nc(Nc3ccc(N4C[C@@H]5C[C@H]4CN5C)c(F)c3)ncc2F)cn1 [compound 5, 4-(6-(N,N-dimethylamino)pyridin-3-yl)-5-fluoro-N-(3-fluoro-4-((1S,4S)-5-methyl-2,5-diazabicyclo[2.2.1]heptan-2-yl)phenyl)pyrimidin-2-amine]",1000 to 10000
3,"Cc1cc(Nc2nccc(-c3ccc(NC(=O)C(C)(C)C)cc3)n2)ccc1N1CC2CCC(C1)N2C [compound 168, 4-(4-(t-butylcarbonylamino)phenyl)-N-(3-methyl-4-(8-methyl-3,8-diazabicyclo[3.2.1]octan-3-yl)phenyl)pyrimidin-2-amine]",< 1000
4,"CN1C[C@@H]2C[C@H]1CN2c1ccc(Nc2nccc(-c3ccc(N4CCOCC4)nc3)n2)cc1 [compound 184, 4-(6-(morpholin-4-yl)pyridin-3-yl)-N-(4-((1S,4S)-5-methyl-2,5-diazabicyclo[2.2.1]heptan-2-yl)phenyl)pyrimidin-2-amine]",< 1000
5,"Cc1cc(Nc2nccc(-c3ccc(N4CCOCC4)nc3)n2)ccc1N1CC2CCC(C1)N2C [compound 166, 4-(6-(morpholin-4-yl)pyridin-3-yl)-N-(3-methyl-4-(8-methyl-3,8-diazabicyclo[3.2.1]octan-3-yl)phenyl)pyrimidin-2-amine]",< 1000
6,"CC(=O)N1C[C@@H]2C[C@H]1CN2c1ccc(Nc2nccc(-c3ccc(N4CCOCC4)nc3)n2)cc1C#N [compound 116, 4-(6-(morpholin-4-yl)pyridin-3-yl)-N-(3-cyano-4-((1S,4S)-5-acetyl-2,5-diazabicyclo[2.2.1]heptan-2-yl)phenyl)pyrimidin-2-amine]",< 1000

# Second part, the compound after the results:
row,GI50 [nM],Structure (SMILES)
1,1000 to 10000,"CCOC(C)c1ccc(-c2ccnc(Nc3ccc(N4C[C@@H]5C[C@H]4CN5C)c(C)c3)n2)cc1 (stereo partly drawn) [compound 181, 4-(4-(1-ethoxyethyl)phenyl)-N-(3-methyl-4-((1S,4S)-5-methyl-2,5-diazabicyclo[2.2.1]heptan-2-yl)phenyl)pyrimidin-2-amine]"
2,1000 to 10000,"Cc1cc(Nc2nccc(-c3cnc(N4CCOCC4)cn3)n2)ccc1N1C[C@@H]2C[C@H]1CN2C [compound 178, 4-(5-(morpholin-4-yl)pyrazin-2-yl)-N-(3-methyl-4-((1S,4S)-5-methyl-2,5-diazabicyclo[2.2.1]heptan-2-yl)phenyl)pyrimidin-2-amine]"
3,< 1000,"Cc1cc(Nc2nccc(-c3ccc(N4CCOCC4)nc3)n2)ccc1N1C[C@@H]2C[C@H]1CN2CC1CC1 [compound 37, 4-(6-(morpholin-4-yl)pyridin-3-yl)-N-(3-methyl-4-((1S,4S)-5-(cyclopropyl)methyl-2,5-diazabicyclo[2.2.1]heptan-2-yl)phenyl)pyrimidin-2-amine]"
4,1000 to 10000,"CN(C)c1ccc(-c2ccnc(Nc3ccc(N4C[C@@H]5C[C@H]4CN5C)c(F)c3)n2)cc1 [compound 15, 4-(4-(N,N-dimethylamino)phenyl)-N-(3-fluoro-4-((1S,4S)-5-methyl-2,5-diazabicyclo[2.2.1]heptan-2-yl)phenyl)pyrimidin-2-amine]"
5,< 1000,"Cc1cc(Nc2nccc(-c3cnc4[nH]ccc4c3)n2)ccc1N1C[C@@H]2C[C@H]1CN2C [compound 22, 4-(1H-pyrrolo[2,3-b]pyridin-5-yl)-N-(3-methyl-4-((1S,4S)-5-methyl-2,5-diazabicyclo[2.2.1]heptan-2-yl)phenyl)pyrimidin-2-amine]"
6,< 1000,"CCN1C[C@@H]2C[C@H]1CN2c1ccc(Nc2nccc(-c3ccc(N(C)C)nc3)n2)cc1C [compound 24, 4-(6-(dimethylamino)pyridin-3-yl)-N-(3-methyl-4-((1S,4S)-5-ethyl-2,5-diazabicyclo[2.2.1]heptan-2-yl)phenyl)pyrimidin-2-amine]"
7,< 1000,"CN(C)c1ccc(-c2ccnc(Nc3ccc(N4C[C@@H]5C[C@H]4CN5C)c(C(F)(F)F)c3)n2)cn1 [compound 96, 4-(6-(dimethylamino)pyridin-3-yl)-N-(3-trifluoromethyl-4-((1S,4S)-5-methyl-2,5-diazabicyclo[2.2.1]heptan-2-yl)phenyl)pyrimidin-2-amine]"
